Experimental data: patent US11135310B2, “Gold porphyrin-PEG conjugates and methods of use” (The University of Hong Kong, priority 2015, dated 2021)

Columns and labels:
[1] = test system: NCM460; assay: In vitro cytotoxicity, MTT assay; type: cell-based, human; conditions: 72 h incubation
[2] = test system: A2780; assay: In vitro cytotoxicity, MTT assay; type: cell-based, human
[3] = test system: NCM460 cells; assay: Apoptosis by FITC-Annexin V staining, flow cytometry; type: cell-based, human; conditions: NCM460, 2 μM, 24 h
Excerpt: (§1) The selective induction of apoptosis of HCT116 cells over NCM460 cells by 1 was further studied using FITC-Annexin V staining. Phosphatidylserine residues, which are located on the cytoplasmic surface of the cell membrane in normal live cells, will be translocated to outer plasma membrane in apoptotic cells. […] The quantity of apoptotic cells stained by FITC-Annexin V after treatment with 1 and Au1a was investigated by flow cytometry.

[4] = test system: HCT116 cells; assay: as above; type: cell-based, human; conditions: HCT116, 2 μM, 24 h
Excerpt: as §1

[5] = test system: HCT116 cells; assay: Induction of apoptosis, CellEvent Caspase-3/7 Green (microscopy and flow cytometry); type: cell-based, human; conditions: HCT116, 2 μM, fluorescence microscopy
[6] = test system: non-tumorigenic cells; assay: In vitro cytotoxicity, MTT assay, non-tumorigenic cells; type: cell-based; conditions: 72 h
[7] = test system: A2780adr cells; assay: Cellular uptake by ICP-MS; type: cell-based, human; conditions: 2 μM, 37° C.
Excerpt: Based on the results of previous study on cellular uptake of nanostructures [Davis, M. E. et al. Nat. Rev. Drug Discov. 2008, 7, 771] and the strong dependence of the uptake mechanism of 1 on temperature, K^+ concentration and hypertonic condition (FIG. 3d), nanostructures of 1 likely entered live cells by clathrin-mediated endocytosis.
To rationalize the lower toxicity of NC1 toward MIHA cells, cellular uptake of NC1 by MIHA and cancer cells has been investigated by ICP-MS (FIGS. 3b and 4). The gold contents in A2780 and A2780adr cells were 2.6- and 2.0-fold higher than that in MIHA cells, respectively, after incubation with NC1 for 2 h. […] On the other hand, co-incubation of MIHA cells with 1 and DOX should not lead to significant changes in cellular uptake rate of DOX. […] For NC1, it was less toxic toward MIHA cells as reflected by the apparent “strong antagonism” (Table 3), which should be owing to the decrease of DOX cellular uptake by the encapsulation from the nanostructures of 1, rather than real antagonism from DOX and 1.

[8] = acute toxicological study, Chem. Commun. 2011, 47, 9554; cited from earlier work
[9] = test system: CCD-19Lu; assay: In vitro cytotoxicity, MTT assay; type: cell-based; conditions: 72 h incubation
[10] = test system: NCM460 cells; assay: Apoptosis in co-culture cell model of HCT116 and NCM460; type: cell-based, human; conditions: NCM460 in co-culture, 2 μM, 24 h, Caspase-3/7 Green Reagent, flow cytometry
Protocol: (§2) In order to differentiate the two different cell lines, NCM460 cells were pre-treated by blue-emissive CMF2HC dye prior to its co-culture with HCT116 cells. […] On the other hand, the co-culture model treated with 1 for 24 h was stained by FITC-Annexin V and propidium iodide, and imaged by fluorescence microscopy. Green and red fluorescence were primarily observed in cells without showing blue luminescence, i.e. HCT16 cells. […] The results of both fluorescence microscopy and flow cytometry support the high selectivity of 1 on killing colon cancer cells in the co-culture model of cancer and normal cells.
(§3) This co-culture model treated with 1 for 24 h had 25.04 and 5.01% of HCT116 and NCM460 cells, respectively, undergoing apoptosis as determined by Caspase-3/7 Green Reagent staining and flow cytometric analysis. This confirms the preferential induction of apoptosis by 1 of HCT116 cells over NCM460 cells in the co-culture model, regardless of the effect, if any, of the blue emissive CMF2HC dye.

[11] = test system: HCT116 cells; assay: as above; type: cell-based, human; conditions: 2 μM, 24 h, Caspase-3/7 Green Reagent, flow cytometry
Protocol: as §2, §3

[12] = test system: HCT116; assay: In vitro cytotoxicity, MTT assay; type: cell-based, human
[13] = test system: MIHA; assay: In vitro cytotoxicity, MTT assay; conditions: MIHA; MTT assay, 72 h incubation
[14] = test system: A2780cis; assay: In vitro cytotoxicity, MTT assay; type: cell-based, human
[15] = test system: A2780adr
[16] = test system: NCI-H460; assay: In vitro cytotoxicity, MTT assay; type: cell-based, human
[17] = test system: HeLa; assay: In vitro cytotoxicity, MTT assay; type: cell-based, human
Excerpt: Therefore, it was anticipated that a not too high loading of DOX into nanostructures of 1 could be used for anti-cancer purposes in order to maintain low toxicity toward non-tumorigenic cells. Together with the higher encapsulation efficiency of DOX, NC1 was selected for investigations of the in vitro cytotoxicity. […] The in vitro cytotoxicity of NC1 was also compared to that of the mixture of nanostructures of 1 and DOX. […] The observed cytotoxicity was further evaluated by the combination index (CI), which can describe the effect of drug combination. […] It is shown that dose and effect are interchangeable via defined parameters. This general equation for the single drug effect has been extended to the multiple drug effect equation for n drugs. These equations provide the theoretical basis for the combination index (CI)-isobologram equation that allows quantitative determination of drug interactions, where CI<1, =1, and >1 indicate synergism, additive effect, and antagonism, respectively. [Chou, et al. Pharmacol. Rev. 2006, 58, 621] […] The synergistic effect can originate from different molecular targets and/or mechanism of action of DOX from that of gold(III) porphyrin complexes. […] These different modes of action would allow supra-additive effect on killing HeLa cells by the co-delivery.

[18] = test system: NCM460 cells; assay: Induction of apoptosis, CellEvent Caspase-3/7 Green (microscopy and flow cytometry); conditions: NCM460, 2 μM, fluorescence microscopy
[19] = IC50 of MIHA cells/IC50 of cancer cells
[20] = IC50 of NCM460 cells/IC50 of cancer cells

SMILES: C1=Cc2nc1c(-c1ccccc1)c1ccc([n-]1)c(-c1ccccc1)c1nc(c(-c3ccccc3)c3ccc([n-]3)c2-c2ccccc2)C=C1.[Au+3].[Cl-] [Au1a, [Au(TPP)]Cl, reference compound]
- IC50 [1]: 0.07 ± 0.01 µM
- Toxicity toward cancer cells compared to that toward MIHA cells [2, 19]: 3.3
- Toxicity toward cancer cells compared to that toward NCM460 cells [2, 20]: 0.6
- IC50 ([2]; MTT assay, 72 h incubation): 0.12 ± 0.02 µM
- Percentage of apoptotic cells [3]: 39.3%
- Percentage of apoptotic cells [4]: 39.6%
- Incubation time to induction of apoptosis [5]: 12 h
- Incubation time to significant apoptotic events / large population of apoptotic cells [5]: 32 h
- IC50 for non-tumorigenic cells [6]: submicromolar range
- Incubation time after which amount in A2780adr cells decreases [7]: 0.5 h
- Effective dose to combat tumor growth relative to lethal dose [8]: close to the lethal dose
- IC50 [9]: 0.23 ± 0.04 µM
- Population percentage of apoptotic cells (corrected) [10]: 29.3%
- Population percentage of apoptotic cells (corrected) [11]: 54.6%
- IC50 ([12]; HCT116, MTT assay, 72 h incubation): 0.09 ± 0.02 µM
- Toxicity toward cancer cells compared to that toward MIHA cells ([12]; HCT-116, IC50 of MIHA cells/IC50 of cancer cells): 4.4
- Toxicity toward cancer cells compared to that toward NCM460 cells ([12]; HCT-116, IC50 of NCM460 cells/IC50 of cancer cells): 0.8
- IC50 [13]: 0.4 ± 0.07 µM
- Toxicity toward cancer cells compared to that toward MIHA cells ([14]; A2780cis, IC50 of MIHA cells/IC50 of cancer cells): 3.5
- Toxicity toward cancer cells compared to that toward NCM460 cells ([14]; A2780cis, IC50 of NCM460 cells/IC50 of cancer cells): 0.4
- IC50 ([14]; A2780cis, MTT assay, 72 h incubation): 0.18 ± 0.01 µM
- Resistance found in A2780cis ([14]; Determined by IC50 of A2780cis cells/IC50 of A2780 cells): 0.67
- Toxicity toward cancer cells compared to that toward MIHA cells ([15]; A2780adr, IC50 of MIHA cells/IC50 of cancer cells): 0.4
- Toxicity toward cancer cells compared to that toward NCM460 cells ([15]; A2780adr, IC50 of NCM460 cells/IC50 of cancer cells): 0.06
- IC50 ([15]; A2780adr, MTT assay, 72 h incubation): 1.1 ± 0.1 µM
- Resistance found in A2780adr ([15]; Determined by IC50 of A2780adr cells/IC50 of A2780 cells): 0.11
- Toxicity toward cancer cells compared to that toward MIHA cells [16, 19]: 1.7
- Toxicity toward cancer cells compared to that toward NCM460 cells [16, 20]: 0.3
- IC50 ([16]; MTT assay, 72 h incubation): 0.23 ± 0.01 µM
- Toxicity toward cancer cells compared to that toward MIHA cells ([17]; IC50 of non-tumorigenic MIHA cells/IC50 of cancer cells): 0.6
- Toxicity toward cancer cells compared to that toward NCM460 cells ([17]; IC50 of non-tumorigenic NCM460 cells/IC50 of cancer cells): 0.1
- IC50 ([17]; MTT assay, 72 h incubation, read-out: IC50): 0.66 ± 0.04 µM
- Incubation time to induction of apoptosis [18]: 20 h
- Incubation time to large number of apoptotic events [18]: 32 h
